Assay results as given in ChEMBL document CHEMBL3627608, “Crystal structures of human RIP2 kinase catalytic domain complexed with ATP-competitive inhibitors: Foundations for understanding inhibitor selectivity” (Bioorg Med Chem, 2015).

Assays:
[1] = biological target: T1, Serine/threonine-protein kinase 17A (Homo sapiens) (UniProt Q9UEE5); test: Inhibition of DRAK1 (unknown origin) at 10 uM after 120 mins P33 radiolabeled kinase activity assay
T1 sequence (whole entry): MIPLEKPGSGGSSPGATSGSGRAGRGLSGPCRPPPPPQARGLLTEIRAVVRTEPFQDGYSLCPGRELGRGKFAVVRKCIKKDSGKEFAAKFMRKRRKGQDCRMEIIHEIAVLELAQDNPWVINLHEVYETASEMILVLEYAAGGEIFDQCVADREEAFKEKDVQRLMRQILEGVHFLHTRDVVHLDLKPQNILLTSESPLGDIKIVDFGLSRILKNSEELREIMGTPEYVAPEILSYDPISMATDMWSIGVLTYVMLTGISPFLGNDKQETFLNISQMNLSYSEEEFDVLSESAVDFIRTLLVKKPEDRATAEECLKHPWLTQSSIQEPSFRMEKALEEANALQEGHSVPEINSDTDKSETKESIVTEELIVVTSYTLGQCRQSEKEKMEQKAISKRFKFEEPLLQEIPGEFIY

[2] = biological target: T2, Discoidin domain-containing receptor 2 (Homo sapiens) (UniProt Q16832); test: Inhibition of DDR2 (unknown origin) at 10 uM after 120 mins P33 radiolabeled kinase activity assay
T2 sequence (whole entry): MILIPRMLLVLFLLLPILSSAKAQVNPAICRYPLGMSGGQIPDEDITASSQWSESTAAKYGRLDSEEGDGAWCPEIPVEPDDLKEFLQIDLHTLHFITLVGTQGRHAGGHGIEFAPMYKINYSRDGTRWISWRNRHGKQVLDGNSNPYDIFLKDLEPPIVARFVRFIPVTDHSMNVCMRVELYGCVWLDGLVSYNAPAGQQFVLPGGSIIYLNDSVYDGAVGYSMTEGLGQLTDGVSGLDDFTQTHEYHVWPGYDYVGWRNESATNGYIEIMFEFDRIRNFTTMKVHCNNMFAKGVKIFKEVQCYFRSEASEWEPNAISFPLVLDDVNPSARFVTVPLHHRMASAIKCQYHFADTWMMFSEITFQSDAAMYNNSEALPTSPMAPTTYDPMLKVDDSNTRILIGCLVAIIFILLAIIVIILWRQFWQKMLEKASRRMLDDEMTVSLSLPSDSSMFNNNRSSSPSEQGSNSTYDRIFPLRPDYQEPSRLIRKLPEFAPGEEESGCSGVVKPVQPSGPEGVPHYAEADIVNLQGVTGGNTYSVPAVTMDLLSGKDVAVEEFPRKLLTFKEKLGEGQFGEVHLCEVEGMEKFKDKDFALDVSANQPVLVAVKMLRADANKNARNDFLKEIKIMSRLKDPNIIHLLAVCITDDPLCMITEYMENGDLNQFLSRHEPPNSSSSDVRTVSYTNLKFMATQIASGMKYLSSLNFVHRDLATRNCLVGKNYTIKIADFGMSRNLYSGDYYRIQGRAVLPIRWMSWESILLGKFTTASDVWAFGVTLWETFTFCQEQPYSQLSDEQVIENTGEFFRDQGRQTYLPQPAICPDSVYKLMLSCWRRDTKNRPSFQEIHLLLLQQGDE

[3] = biological target: SRSF protein kinase 1 (Homo sapiens) (UniProt Q96SB4); test: Inhibition of SRPK1 (unknown origin) at 10 uM after 120 mins P33 radiolabeled kinase activity assay
SRSF protein kinase 1 (Homo sapiens), sequence (Q96SB4 whole entry): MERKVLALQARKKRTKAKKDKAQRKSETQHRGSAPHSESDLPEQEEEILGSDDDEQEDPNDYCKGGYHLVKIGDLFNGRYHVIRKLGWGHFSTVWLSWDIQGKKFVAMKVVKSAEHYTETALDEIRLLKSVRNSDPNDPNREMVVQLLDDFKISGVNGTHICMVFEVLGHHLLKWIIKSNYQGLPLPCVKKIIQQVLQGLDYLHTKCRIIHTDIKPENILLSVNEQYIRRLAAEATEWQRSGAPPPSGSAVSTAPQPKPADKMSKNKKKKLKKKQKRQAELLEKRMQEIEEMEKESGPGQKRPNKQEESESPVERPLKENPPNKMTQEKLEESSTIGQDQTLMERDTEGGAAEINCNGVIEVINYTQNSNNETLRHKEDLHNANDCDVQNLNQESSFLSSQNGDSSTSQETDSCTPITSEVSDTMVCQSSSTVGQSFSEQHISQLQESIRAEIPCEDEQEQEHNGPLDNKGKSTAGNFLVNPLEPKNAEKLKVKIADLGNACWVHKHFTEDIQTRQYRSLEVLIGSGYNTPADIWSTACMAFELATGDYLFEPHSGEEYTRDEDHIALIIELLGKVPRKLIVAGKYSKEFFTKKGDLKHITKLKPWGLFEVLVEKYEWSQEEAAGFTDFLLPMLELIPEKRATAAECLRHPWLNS

[4] = biological target: Angiopoietin-1 receptor (Homo sapiens) (UniProt Q02763); test: Inhibition of TIE2 (unknown origin) at 10 uM after 120 mins P33 radiolabeled kinase activity assay
Angiopoietin-1 receptor (Homo sapiens), sequence (Q02763 whole entry, canonical isoform): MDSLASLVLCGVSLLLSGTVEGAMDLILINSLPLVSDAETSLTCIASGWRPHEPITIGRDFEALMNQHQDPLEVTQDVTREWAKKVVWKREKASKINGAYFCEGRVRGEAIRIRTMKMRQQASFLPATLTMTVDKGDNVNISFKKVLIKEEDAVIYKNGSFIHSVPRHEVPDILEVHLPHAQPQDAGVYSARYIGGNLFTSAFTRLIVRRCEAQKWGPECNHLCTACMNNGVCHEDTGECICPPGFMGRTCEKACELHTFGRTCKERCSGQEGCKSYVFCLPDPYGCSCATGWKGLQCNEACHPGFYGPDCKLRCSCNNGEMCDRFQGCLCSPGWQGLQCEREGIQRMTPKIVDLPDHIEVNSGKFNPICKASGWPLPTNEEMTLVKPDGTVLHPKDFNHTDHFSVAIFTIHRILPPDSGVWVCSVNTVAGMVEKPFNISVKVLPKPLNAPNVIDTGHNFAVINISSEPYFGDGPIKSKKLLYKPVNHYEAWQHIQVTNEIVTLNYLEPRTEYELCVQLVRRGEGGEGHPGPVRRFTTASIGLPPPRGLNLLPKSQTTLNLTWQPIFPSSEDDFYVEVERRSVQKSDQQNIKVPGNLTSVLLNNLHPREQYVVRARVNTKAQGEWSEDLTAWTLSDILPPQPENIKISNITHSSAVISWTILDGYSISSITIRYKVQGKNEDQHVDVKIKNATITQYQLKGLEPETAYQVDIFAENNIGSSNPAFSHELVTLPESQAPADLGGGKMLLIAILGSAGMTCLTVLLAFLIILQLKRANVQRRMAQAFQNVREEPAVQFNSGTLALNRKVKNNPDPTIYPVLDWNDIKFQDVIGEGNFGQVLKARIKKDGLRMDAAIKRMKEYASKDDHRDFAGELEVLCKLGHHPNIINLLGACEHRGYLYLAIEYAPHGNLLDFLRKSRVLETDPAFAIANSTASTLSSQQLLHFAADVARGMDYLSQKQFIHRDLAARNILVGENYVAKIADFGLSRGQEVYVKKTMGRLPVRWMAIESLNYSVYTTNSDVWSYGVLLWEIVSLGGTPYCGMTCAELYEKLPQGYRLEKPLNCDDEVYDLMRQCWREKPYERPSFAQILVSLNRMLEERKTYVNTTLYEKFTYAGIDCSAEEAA

[5] = biological target: Phosphorylase b kinase gamma catalytic chain, skeletal muscle/heart isoform (Homo sapiens) (UniProt Q16816); test: Inhibition of PHKgamma1 (unknown origin) at 10 uM after 120 mins P33 radiolabeled kinase activity assay
Phosphorylase b kinase gamma catalytic chain, skeletal muscle/heart isoform (Homo sapiens), sequence (Q16816 whole entry, looked up, canonical isoform): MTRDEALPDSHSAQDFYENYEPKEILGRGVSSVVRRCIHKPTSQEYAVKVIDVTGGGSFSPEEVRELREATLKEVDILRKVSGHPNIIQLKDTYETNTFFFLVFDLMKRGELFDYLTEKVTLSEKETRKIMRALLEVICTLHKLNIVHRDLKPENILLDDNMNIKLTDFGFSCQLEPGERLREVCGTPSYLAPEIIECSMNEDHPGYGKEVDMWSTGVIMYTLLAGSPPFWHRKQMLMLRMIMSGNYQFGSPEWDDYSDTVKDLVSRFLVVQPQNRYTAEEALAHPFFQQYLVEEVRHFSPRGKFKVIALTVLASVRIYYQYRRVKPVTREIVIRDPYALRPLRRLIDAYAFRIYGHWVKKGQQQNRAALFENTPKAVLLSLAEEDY

[6] = biological target: T3, Myosin-IIIb (Homo sapiens) (UniProt Q8WXR4); test: Inhibition of MYO3b (unknown origin) at 10 uM after 120 mins P33 radiolabeled kinase activity assay
T3 sequence (whole entry): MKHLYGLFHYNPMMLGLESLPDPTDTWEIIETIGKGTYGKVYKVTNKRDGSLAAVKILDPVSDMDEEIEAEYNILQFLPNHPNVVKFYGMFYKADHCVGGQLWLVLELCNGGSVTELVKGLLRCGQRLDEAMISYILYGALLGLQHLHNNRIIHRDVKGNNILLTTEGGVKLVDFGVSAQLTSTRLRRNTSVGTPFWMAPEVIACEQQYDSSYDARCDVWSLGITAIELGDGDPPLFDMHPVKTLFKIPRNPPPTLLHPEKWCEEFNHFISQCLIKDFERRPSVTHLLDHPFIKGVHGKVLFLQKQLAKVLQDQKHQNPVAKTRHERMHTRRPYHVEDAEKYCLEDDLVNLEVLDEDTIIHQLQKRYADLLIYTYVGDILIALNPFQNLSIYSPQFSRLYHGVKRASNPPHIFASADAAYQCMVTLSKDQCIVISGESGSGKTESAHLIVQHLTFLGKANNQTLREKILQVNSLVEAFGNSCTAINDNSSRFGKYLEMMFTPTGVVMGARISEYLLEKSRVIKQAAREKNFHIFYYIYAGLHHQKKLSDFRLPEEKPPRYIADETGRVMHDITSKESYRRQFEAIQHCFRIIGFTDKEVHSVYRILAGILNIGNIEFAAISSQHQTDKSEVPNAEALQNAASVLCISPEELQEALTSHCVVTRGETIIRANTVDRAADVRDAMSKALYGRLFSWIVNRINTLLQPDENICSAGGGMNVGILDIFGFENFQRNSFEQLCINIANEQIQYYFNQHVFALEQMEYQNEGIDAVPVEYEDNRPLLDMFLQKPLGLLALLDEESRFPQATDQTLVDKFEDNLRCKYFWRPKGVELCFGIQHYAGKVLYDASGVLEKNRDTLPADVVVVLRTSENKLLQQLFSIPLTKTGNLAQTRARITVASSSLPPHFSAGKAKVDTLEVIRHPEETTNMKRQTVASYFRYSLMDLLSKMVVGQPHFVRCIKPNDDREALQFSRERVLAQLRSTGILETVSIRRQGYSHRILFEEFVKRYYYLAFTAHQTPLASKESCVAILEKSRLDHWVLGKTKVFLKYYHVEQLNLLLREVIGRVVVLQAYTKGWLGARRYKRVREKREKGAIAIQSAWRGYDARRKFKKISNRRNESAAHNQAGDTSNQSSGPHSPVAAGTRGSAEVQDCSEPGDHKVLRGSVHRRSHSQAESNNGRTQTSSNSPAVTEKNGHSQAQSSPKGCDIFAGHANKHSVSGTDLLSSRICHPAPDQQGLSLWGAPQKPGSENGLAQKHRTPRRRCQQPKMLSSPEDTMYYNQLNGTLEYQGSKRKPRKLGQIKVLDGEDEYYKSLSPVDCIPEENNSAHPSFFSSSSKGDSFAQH

[7] = biological target: Interleukin-1 receptor-associated kinase 1 (Homo sapiens) (UniProt P51617); test: Inhibition of IRAK1 (unknown origin) at 10 uM after 120 mins P33 radiolabeled kinase activity assay
Interleukin-1 receptor-associated kinase 1 (Homo sapiens), sequence (P51617 whole entry, looked up): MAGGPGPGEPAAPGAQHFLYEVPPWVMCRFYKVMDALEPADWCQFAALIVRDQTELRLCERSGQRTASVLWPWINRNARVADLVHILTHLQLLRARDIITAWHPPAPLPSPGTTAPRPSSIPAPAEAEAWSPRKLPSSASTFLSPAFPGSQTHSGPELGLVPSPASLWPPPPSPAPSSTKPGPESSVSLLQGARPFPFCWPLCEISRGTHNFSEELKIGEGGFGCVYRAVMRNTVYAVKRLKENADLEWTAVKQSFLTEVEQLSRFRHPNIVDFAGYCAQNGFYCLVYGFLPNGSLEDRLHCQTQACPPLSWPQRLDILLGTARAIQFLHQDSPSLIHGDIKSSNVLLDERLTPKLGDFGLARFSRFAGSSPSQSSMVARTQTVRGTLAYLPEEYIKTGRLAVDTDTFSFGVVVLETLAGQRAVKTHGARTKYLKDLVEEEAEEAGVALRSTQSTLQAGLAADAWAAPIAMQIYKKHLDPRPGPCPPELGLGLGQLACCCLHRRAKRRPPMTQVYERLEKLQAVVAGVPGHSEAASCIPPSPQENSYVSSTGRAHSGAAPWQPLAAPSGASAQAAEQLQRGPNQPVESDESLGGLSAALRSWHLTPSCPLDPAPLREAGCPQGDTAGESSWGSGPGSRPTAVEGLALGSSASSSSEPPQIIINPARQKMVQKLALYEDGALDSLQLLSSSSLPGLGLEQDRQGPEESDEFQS

[8] = biological target: Tyrosine-protein kinase Srms (Homo sapiens) (UniProt Q9H3Y6); test: Inhibition of SRMS (unknown origin) at 10 uM after 120 mins P33 radiolabeled kinase activity assay
Tyrosine-protein kinase Srms (Homo sapiens), sequence (Q9H3Y6 whole entry): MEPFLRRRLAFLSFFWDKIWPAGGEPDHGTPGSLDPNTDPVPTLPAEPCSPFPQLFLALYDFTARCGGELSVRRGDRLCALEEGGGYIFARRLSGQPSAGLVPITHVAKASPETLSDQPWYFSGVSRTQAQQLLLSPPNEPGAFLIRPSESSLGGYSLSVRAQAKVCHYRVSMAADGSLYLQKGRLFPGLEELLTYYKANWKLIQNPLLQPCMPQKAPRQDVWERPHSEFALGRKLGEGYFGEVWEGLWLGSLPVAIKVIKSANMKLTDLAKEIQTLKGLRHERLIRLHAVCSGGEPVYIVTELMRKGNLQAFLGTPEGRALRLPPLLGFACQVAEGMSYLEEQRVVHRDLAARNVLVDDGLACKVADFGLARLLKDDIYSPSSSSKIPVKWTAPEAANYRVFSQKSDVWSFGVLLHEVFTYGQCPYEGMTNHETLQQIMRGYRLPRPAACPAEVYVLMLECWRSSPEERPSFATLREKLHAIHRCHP

Row | inhibition [1] | inhibition [2] | inhibition [3] | inhibition [4] | inhibition [5] | inhibition [6] | inhibition [7] | inhibition [8] | Compound
1 | 1.47% | 99% | 18.5% | 97% | 8.44% | 71.7% | 27.6% | 98.4% | CS(=O)(=O)c1cccc(Nc2nccc(-c3sc(N4CCOCC4)nc3-c3cccc(NS(=O)(=O)c4c(F)cccc4F)c3)n2)c1
2 | 5.43% | 28.2% | 5.66% | 4.75% | 10.5% | 2.38% | 5.62% | 4.18% | COCCNC(=O)c1ccc2c(c1)nc(-c1cnc(-c3ccc(Cl)cc3)[nH]1)n2CCOC
3 | 8.49% | 98% | 59.1% | 69.2% | 55.9% | 92.5% | 99.1% | -2.8% | CC(C)(C)c1cc(NC(=O)Nc2ccc(Oc3ccncc3)cc2)no1
